# Test results as given in patent US4292317A, “1,4-Dihydro-quinoline-3-carboxylic acid derivatives, process for their preparation and compositions containing them” (Laboratorie Roger Bellon, priority 1977, dated 1981).
# Columns and labels:
# Type in all cases: cell-based
# Salm. typhi 0901 = assay: microbe, parasite or virus in culture; settings: Salmonella enterica, 18 h; Table III; Salm. typhi 0901
# Procedure: (§1) After sterilisation at 120° C., the pH was 6.8.
# (§2) The minimum inhibitory concentrations (M.I.C.) were determined by dilution of the test compounds in this mixture, the concentration ranging from 0.05 to 100 μg/cm^3 in a geometric progression with a factor of 2.
# (§3) The inoculation of the dishes was carried out by means of a multiple inoculator with 10^-3 dilutions of 18 hour old broth cultures.
# (§4) The dishes were placed in an oven at 37° C. and the readings were taken afer an incubation time of 18 hours. The M.I.C. was taken as the lowest concentration which inhibited a culture.
# Staph. 209 P = assay: M.I.C. in vitro, nutrient agar dilution; settings: 18 h; Table III; Staph. 209 P; read-out: M.I.C.
# Procedure: as §1, §2, §3, §4
# Strepto D.M. 19 = assay: M.I.C. in vitro, nutrient agar dilution; settings: 18 h; Table III; Strepto D.M. 19; read-out: M.I.C.
# Procedure: as §1, §2, §3, §4
# Pr. vulgaris 12-53 = assay: M.I.C. in vitro, nutrient agar dilution; settings: Proteus vulgaris, 1253, 18 h; Table III; Pr. vulgaris 12-53; read-out: M.I.C.
# Procedure: as §1, §2, §3, §4
# Ps. aeruginosa A.22 = assay: M.I.C. in vitro, nutrient agar dilution; settings: Pseudomonas aeruginosa, 18 h; Table III; Ps. aeruginosa A.22; read-out: M.I.C.
# Procedure: as §1, §2, §3, §4
# Staph. 9.144 = assay: M.I.C. in vitro, nutrient agar dilution; settings: 18 h; Table III; Staph. 9.144; read-out: M.I.C.
# Procedure: as §1, §2, §3, §4
# Esch. coli 111 B4 = assay: M.I.C. in vitro, nutrient agar dilution; settings: Escherichia coli, 18 h; Table III; Esch. coli 111 B4
# Procedure: as §1, §2, §3, §4
# Klebs. pneum. 10.031 = assay: M.I.C. in vitro, nutrient agar dilution; settings: 18 h; Table III; Klebs. pneum. 10.031; read-out: M.I.C.
# Procedure: as §1, §2, §3, §4
# Providentia 0223 = assay: M.I.C. in vitro, nutrient agar dilution; settings: 18 h; Table III; Providentia 0223; read-out: M.I.C.
# Procedure: as §1, §2, §3, §4
# Pr. morganii A.236 = assay: M.I.C. in vitro, nutrient agar dilution; settings: Morganella morganii, 18 h; Table III; Pr. morganii A. 236; read-out: M.I.C.
# Procedure: as §1, §2, §3, §4
# Arizona 6.211 = assay: M.I.C. in vitro, nutrient agar dilution; settings: 18 h; Table III; Arizona 6.211; read-out: M.I.C.
# Procedure: as §1, §2, §3, §4
# Esch. coli 54.127 O.M.S. = assay: M.I.C. in vitro, nutrient agar dilution; settings: Escherichia coli, 18 h; Table III; Esch. coli 54.127 O.M.S.; read-out: M.I.C.
# Procedure: as §1, §2, §3, §4
# Sh. sonnei I.P.S. = assay: M.I.C. in vitro, nutrient agar dilution; settings: Shigella sonnei, 18 h; Table III; Sh. sonnei I.P.S.; read-out: M.I.C.
# Procedure: as §1, §2, §3, §4
# Ps. aeruginosa 72.345 = assay: M.I.C. in vitro, nutrient agar dilution; settings: Pseudomonas aeruginosa, 18 h; Table III; Pd. aeruginosa 72.345; read-out: M.I.C.
# Procedure: as §1, §2, §3, §4
# Strepto A 561 = assay: M.I.C. in vitro, nutrient agar dilution; settings: 18 h; Table III; Strepto A 561
# Procedure: as §1, §2, §3, §4
# Serratia = assay: M.I.C. in vitro, nutrient agar dilution; settings: 18 h, Table III, read-out: M.I.C.
# Procedure: as §1, §2, §3, §4
# Bord. bronchis. 4.617 = assay: M.I.C. in vitro, nutrient agar dilution; settings: 18 h; Table III; Bord. bronchis. 4.617; read-out: M.I.C.
# Procedure: as §1, §2, §3, §4
# B. subtilis = assay: M.I.C. in vitro, nutrient agar dilution; settings: Bacillus subtilis, 18 h; Table III; B. Subtilis; read-out: M.I.C.
# Procedure: as §1, §2, §3, §4
# S. enteritidis Danysz = assay: M.I.C. in vitro, nutrient agar dilution; settings: Salmonella enterica, 18 h; Table III; S. enteritidis Danysz; read-out: M.I.C.
# Procedure: as §1, §2, §3, §4
# Pr. mirabilis Nig = assay: M.I.C. in vitro, nutrient agar dilution; settings: Proteus mirabilis, 18 h; Table III; Pr. mirabilis Nig; read-out: M.I.C.
# Procedure: as §1, §2, §3, §4
# S. oranienburg 1066 = assay: M.I.C. in vitro, nutrient agar dilution; settings: Salmonella enterica, 18 h; Table III; S. oranienburg 1066; read-out: M.I.C.
# Procedure: as §1, §2, §3, §4
# Esch. coli 95 I.S.M. = assay: M.I.C. in vitro, nutrient agar dilution; settings: Escherichia coli, 18 h; Table III; Esch. coli 95 I.S.M.; read-out: M.I.C.
# Procedure: as §1, §2, §3, §4
SMILES,MIC (Salm. typhi 0901),MIC (Staph. 209 P),MIC (Strepto D.M. 19),MIC (Pr. vulgaris 12-53),MIC (Ps. aeruginosa A.22),MIC (Staph. 9.144),MIC (Esch. coli 111 B4),MIC (Klebs. pneum. 10.031),MIC (Providentia 0223),MIC (Pr. morganii A.236),MIC (Arizona 6.211),MIC (Esch. coli 54.127 O.M.S.),MIC (Sh. sonnei I.P.S.),MIC (Ps. aeruginosa 72.345),MIC (Strepto A 561),MIC (Serratia),MIC (Bord. bronchis. 4.617),MIC (B. subtilis),MIC (S. enteritidis Danysz),MIC (Pr. mirabilis Nig),further results
"CN1CCN(c2cc3c(cc2F)c(=O)c(C(=O)O)cn3C)CC1 [Example 31, 6-Fluoro-1-methyl-7-(4-methylpiperazinyl)-4-oxo-1,4-dihydro-quinoline-3-carboxylic acid]",0.4 µg/mL,0.4 µg/mL,3.1 to 6.2 µg/mL,0.2 µg/mL,1.6 µg/mL,0.4 µg/mL,0.8 µg/mL,0.8 µg/mL,0.8 to 1.6 µg/mL,0.2 µg/mL,0.2 to 0.4 µg/mL,0.8 µg/mL,0.2 to 0.4 µg/mL,1.6 µg/mL,12.5 µg/mL,0.2 µg/mL,6.25 µg/mL,0.8 µg/mL,0.4 µg/mL,0.4 µg/mL,MIC (S. oranienburg 1066): 6.2 to 12.5 µg/mL; MIC (Esch. coli 95 I.S.M.): 0.1 µg/mL
"Cn1cc(C(=O)O)c(=O)c2cc(F)c(N3CCNCC3)cc21 [Example 32, 6-fluoro-1-methyl-4-oxo-7-piperazinyl-1,4-dihydro-quinoline-3-carboxylic acid]",0.8 µg/mL,0.8 µg/mL,12.5 µg/mL,0.2 µg/mL,0.8 to 3.12 µg/mL,0.8 µg/mL,0.2 µg/mL,0.1 µg/mL,1.6 µg/mL,0.2 µg/mL,0.2 µg/mL,0.2 µg/mL,0.1 µg/mL,0.4 to 3.12 µg/mL,6.2 to 12.5 µg/mL,0.2 µg/mL,6.25 µg/mL,0.4 µg/mL,0.2 µg/mL,0.2 µg/mL,MIC (S. oranienburg 1066): 12.5 µg/mL; MIC (Esch. coli 95 I.S.M.): 0.2 µg/mL
